In patent US20090197955A1, “METHODS OF IMPROVING DHA DEPOSITION AND RELATED FUNCTION AND/OR DEVELOPMENT” (Monsanto Company, priority 2008, published 2009):

Key:
[1] = Brain phospholipid fatty acid composition of pigs fed SDA; format: in vivo; settings: for Brain phospholipid DHA, percent of total fatty acids / Brain phospholipid EPA, percent of total fatty acids / Brain phospholipid SDA, percent of total fatty acids: 35 days
Protocol: In addition to measuring long-chain fatty acid incorporation into tissues, additional research was undertaken to understand the alterations in fatty acid concentration in the brain and heart tissues. In particular, DHA is known to be a significant fraction of brain composition. As such, the following experiments were conducted with brain matter extracted from the pigs used in the study above. After completion of the feeding phase, animals were slaughtered and tissues were collected for evaluation. A sample of brain was obtained by making a cup from the occipital condyle at the base of the skull to the back of the eye. A portion of the brain from the cerebral cortex, and some of the mid brain was collected. About 1 g of frozen heart or brain tissue was pulverized in a stainless steel mortar and pestle maintained at −70° C. It was then suspended in 2 mL of ice-cold saline and sonicated on ice to thoroughly disperse the tissue. The lipids were extracted with methylene chloride:methanol. The PL fractions were isolated by thin layer chromatography and methylated for 10 minutes in BF3-methanol at 100° C. After extraction of the fatty acid methyl esters (FAME) with hexane:water, their composition was analyzed in a GC2010 (Shimadzu Scientific Instruments, Columbia, Md.) using a fused silica capillary columns (SP-2560, 100 m length, 0.25 mm internal diameter, 0.25 um film thickness, Supelco, Bellefonte, Pa.). A weighed external standard fatty acid (FA) mixture (GLC727, NuCheck Prep, Elysian, Minn.) was included to correct for potential differences in FA response factors. The response factor for palmitic acid of is assumed to be 1.0. Results were expressed as a percent of total identified FA (for composition endpoints) and as mg FA/g tissue.

[2] = cited from earlier work
[3] = Brain outer cortex lipid fatty acid analysis, control vs 0.8% SDA; format: in vivo, pigs
Protocol: About 1 g of frozen heart or brain tissue was pulverized in a stainless steel mortar and pestle maintained at −70° C. It was then suspended in 2 mL of ice-cold saline and sonicated on ice to thoroughly disperse the tissue. The lipids were extracted with methylene chloride:methanol. […] After extraction of the fatty acid methyl esters (FAME) with hexane:water, their composition was analyzed in a GC2010 (Shimadzu Scientific Instruments, Columbia, Md.) using a fused silica capillary columns (SP-2560, 100 m length, 0.25 mm internal diameter, 0.25 um film thickness, Supelco, Bellefonte, Pa.). A weighed external standard fatty acid (FA) mixture (GLC727, NuCheck Prep, Elysian, Minn.) was included to correct for potential differences in FA response factors. The response factor for palmitic acid of is assumed to be 1.0. Results were expressed as a percent of total identified FA (for composition endpoints) and as mg FA/g tissue. To further explore the effect of SDA on brain tissue composition, samples from the four control and four high dose (Treatment 5) animals were shaved to isolate the outer cortex. This was done to test the hypothesis that white, myelinated tissue found in the mid brain may not accumulate DHA as readily as gray matter in the cerebral cortex.

[4] = 0.8% SDA (Treatment 5), average

## CC/C=C\C/C=C\C/C=C\C/C=C\CCCCC(=O)O [SDA, stearidonic acid]
[1]; SDA 0.2%
  Brain phospholipid DHA, percent of total fatty acids: 10.07%
  Brain phospholipid EPA, percent of total fatty acids: 0.02%
  Brain phospholipid SDA, percent of total fatty acids: 0.01%
[1]; SDA 0.4%
  Brain phospholipid DHA, percent of total fatty acids: 9.15%
  Brain phospholipid EPA, percent of total fatty acids: 0.04%
  Brain phospholipid SDA, percent of total fatty acids: 0.01%
[1]; SDA 0.6%
  Brain phospholipid DHA, percent of total fatty acids: 10.99%
  Brain phospholipid EPA, percent of total fatty acids: 0.06%
  Brain phospholipid SDA, percent of total fatty acids: 0.01%
[1]; SDA 0.8%
  Brain phospholipid DHA, percent of total fatty acids: 11.21%
  Brain phospholipid EPA, percent of total fatty acids: 0.06%
  Brain phospholipid SDA, percent of total fatty acids: 0.01%
[1]; SDA feeding
  Deposition of EPA and DHA in the brain: dose response deposition of EPA and DHA in the brain
[2]
  Amount of SDA relative to EPA needed to enrich blood tissues with an equivalent amount of EPA: 3 times
[3]; [4]
  C14:0, brain outer cortex: 0.50%
  C16:0, brain outer cortex: 24.20%
  C16:1n7, brain outer cortex: 1.05%
  C16:1n7t, brain outer cortex: 0.28%
  C18:0, brain outer cortex: 16.53%
  C18:1n9, brain outer cortex: 19.14%
  C18:1t, brain outer cortex: 0.08%
  C18:2n6, brain outer cortex: 0.63%
  C18:2n6t, brain outer cortex: 0.23%
  C18:3n3, brain outer cortex: 0.15%
  C18:3n6, brain outer cortex: 0.02%
  C18:4n3, brain outer cortex: 0.02%
  C20:1n9, brain outer cortex: 0.23%
  C20:2n6, brain outer cortex: 0.06%
  C20:3n6, brain outer cortex: 0.35%
  C20:4n6, brain outer cortex: 11.48%
  C20:5n3, brain outer cortex: 0.15%
  C22:4, brain outer cortex: 2.90%
  C22:5n3, brain outer cortex: 0.98%
  C22:5n6, brain outer cortex: 3.58%
  C22:6n3, brain outer cortex: 17.38%
  C24:0, brain outer cortex: 0.02%
  C24:1n9, brain outer cortex: 0.05%
  OMX-3 (Omega 3 Index, sum of EPA and DHA), brain outer cortex: 17.53%
[3]; Treatment 5 vs control
  DHA and EPA in total lipid extract of the outer cortex region: increase in DHA and EPA
